Data published in ChEMBL document CHEMBL5608161, “Identification of 4-(6-((2-methoxyphenyl)amino)pyrazin-2-yl)benzoic acids as CSNK2A inhibitors with antiviral activity and improved selectivity over PIM3” (Bioorg Med Chem Lett, 2024).
pIC50: −log10 of the molar value. Active and inactive are the calls of the source. The rule behind the calls is not given here.

How the values were obtained:
HEK293 = test: Inhibition of Nano Luc-fused CSNK2A (unknown origin) expressed in HEK293 cells using NanoGlo as substrate at 10 uM by NanoBRET In-cell target engagement assay; type: cell-based; details: Homo sapiens
[1] = target: Serine/threonine-protein kinase pim-1 (Homo sapiens) (UniProt P11309); test: Binding affinity to PIM1 (unknown origin) assessed as melting temperature by thermal shift assay
Serine/threonine-protein kinase pim-1 (Homo sapiens), sequence (P11309 whole entry, looked up): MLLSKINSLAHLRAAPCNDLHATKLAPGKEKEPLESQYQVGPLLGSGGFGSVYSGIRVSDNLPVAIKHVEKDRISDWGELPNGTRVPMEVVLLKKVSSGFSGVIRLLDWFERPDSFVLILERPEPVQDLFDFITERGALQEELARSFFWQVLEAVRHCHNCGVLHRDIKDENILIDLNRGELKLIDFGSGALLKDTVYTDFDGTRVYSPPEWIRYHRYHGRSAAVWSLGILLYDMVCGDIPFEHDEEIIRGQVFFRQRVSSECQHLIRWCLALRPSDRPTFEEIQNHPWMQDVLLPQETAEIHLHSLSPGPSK

[2] = target: Death-associated protein kinase 3 (Homo sapiens) (UniProt O43293); test: Binding affinity to DAPK3 (unknown origin) assessed as melting temperature by thermal shift assay
Death-associated protein kinase 3 (Homo sapiens), sequence (O43293 whole entry, looked up): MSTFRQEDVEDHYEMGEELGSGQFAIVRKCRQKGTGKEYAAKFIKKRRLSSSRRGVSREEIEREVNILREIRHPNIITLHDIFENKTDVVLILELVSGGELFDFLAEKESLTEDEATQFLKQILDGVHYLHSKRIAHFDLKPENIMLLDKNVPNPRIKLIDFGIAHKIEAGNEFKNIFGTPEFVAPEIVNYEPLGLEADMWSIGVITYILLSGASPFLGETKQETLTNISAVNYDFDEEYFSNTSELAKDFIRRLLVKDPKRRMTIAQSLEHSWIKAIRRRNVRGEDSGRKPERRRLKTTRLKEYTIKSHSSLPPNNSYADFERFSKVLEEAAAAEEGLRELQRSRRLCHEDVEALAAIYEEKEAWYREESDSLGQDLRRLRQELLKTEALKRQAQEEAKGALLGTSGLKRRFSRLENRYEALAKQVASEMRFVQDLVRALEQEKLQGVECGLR

[3] = target: T1, Mitogen-activated protein kinase 15 (Homo sapiens) (UniProt Q8TD08); test: Binding affinity to MAPK15 (unknown origin) assessed as melting temperature by thermal shift assay
T1 sequence (whole entry): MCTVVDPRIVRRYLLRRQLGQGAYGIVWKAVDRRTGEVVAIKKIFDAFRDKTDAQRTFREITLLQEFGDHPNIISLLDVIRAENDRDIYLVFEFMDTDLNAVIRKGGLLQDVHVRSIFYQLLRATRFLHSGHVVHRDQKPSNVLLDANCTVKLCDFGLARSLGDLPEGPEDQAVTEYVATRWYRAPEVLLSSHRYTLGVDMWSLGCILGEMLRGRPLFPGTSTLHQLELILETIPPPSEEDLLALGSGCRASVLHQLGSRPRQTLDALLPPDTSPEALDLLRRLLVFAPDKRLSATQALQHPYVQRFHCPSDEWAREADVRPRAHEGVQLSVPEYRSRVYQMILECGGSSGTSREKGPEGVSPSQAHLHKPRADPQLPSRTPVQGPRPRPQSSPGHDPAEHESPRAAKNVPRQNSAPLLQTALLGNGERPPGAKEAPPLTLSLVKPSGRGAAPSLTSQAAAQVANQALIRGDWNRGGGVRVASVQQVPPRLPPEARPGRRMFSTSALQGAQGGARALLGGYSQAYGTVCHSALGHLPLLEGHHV

[4] = target: T2, Dual specificity tyrosine-phosphorylation-regulated kinase 2 (Homo sapiens) (UniProt Q92630); test: Binding affinity to DYRK2 (unknown origin) assessed as melting temperature by thermal shift assay
T2 sequence (whole entry): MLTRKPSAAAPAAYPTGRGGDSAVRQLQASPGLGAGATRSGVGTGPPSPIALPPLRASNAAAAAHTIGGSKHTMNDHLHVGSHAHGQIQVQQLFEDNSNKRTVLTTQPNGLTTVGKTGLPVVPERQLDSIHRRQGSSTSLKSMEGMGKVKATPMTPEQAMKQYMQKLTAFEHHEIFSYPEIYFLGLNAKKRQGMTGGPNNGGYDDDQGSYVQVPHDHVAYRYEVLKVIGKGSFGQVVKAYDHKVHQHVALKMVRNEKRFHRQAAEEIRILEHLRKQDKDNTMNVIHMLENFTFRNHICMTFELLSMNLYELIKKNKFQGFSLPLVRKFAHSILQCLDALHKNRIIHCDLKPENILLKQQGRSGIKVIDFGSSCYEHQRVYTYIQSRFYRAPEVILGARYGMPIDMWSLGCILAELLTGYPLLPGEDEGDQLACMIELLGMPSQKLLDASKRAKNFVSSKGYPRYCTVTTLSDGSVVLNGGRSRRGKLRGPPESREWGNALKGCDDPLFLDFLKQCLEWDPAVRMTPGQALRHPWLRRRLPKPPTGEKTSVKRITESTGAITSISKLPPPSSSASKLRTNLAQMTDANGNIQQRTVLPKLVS

[5] = target: BMP-2-inducible protein kinase (Homo sapiens) (UniProt Q9NSY1); test: Binding affinity to BIKE (unknown origin) assessed as melting temperature by thermal shift assay
BMP-2-inducible protein kinase (Homo sapiens), sequence (Q9NSY1 whole entry, looked up): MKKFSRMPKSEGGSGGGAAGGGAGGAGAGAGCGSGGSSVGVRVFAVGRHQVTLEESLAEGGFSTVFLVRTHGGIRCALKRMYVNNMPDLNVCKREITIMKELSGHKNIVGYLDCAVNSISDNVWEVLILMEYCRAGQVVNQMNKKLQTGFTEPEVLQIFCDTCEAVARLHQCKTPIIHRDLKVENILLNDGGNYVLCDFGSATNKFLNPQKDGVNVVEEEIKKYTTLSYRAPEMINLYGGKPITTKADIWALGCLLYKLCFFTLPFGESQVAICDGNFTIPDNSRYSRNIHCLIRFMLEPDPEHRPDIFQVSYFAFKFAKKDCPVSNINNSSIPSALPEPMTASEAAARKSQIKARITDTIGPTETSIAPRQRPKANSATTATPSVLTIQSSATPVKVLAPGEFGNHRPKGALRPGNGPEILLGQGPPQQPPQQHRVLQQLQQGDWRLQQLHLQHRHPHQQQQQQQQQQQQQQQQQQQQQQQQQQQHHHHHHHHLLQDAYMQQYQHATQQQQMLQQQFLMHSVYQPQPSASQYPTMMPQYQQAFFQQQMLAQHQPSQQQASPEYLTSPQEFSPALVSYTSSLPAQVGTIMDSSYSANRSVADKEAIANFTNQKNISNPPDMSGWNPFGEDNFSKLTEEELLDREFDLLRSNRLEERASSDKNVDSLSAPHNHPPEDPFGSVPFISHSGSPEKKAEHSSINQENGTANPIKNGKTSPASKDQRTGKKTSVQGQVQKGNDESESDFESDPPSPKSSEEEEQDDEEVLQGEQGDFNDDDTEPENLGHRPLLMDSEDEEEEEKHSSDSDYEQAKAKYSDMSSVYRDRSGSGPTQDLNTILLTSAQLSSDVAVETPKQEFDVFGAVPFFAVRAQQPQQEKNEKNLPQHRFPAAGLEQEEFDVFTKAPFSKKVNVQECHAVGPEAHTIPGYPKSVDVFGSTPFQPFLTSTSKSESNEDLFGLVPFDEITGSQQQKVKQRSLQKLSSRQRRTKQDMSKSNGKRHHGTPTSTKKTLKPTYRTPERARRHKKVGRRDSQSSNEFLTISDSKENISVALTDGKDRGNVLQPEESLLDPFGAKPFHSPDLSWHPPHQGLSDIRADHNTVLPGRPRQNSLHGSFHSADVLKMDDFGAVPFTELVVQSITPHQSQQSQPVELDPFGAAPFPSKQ

cells = details: Homo sapiens, HEK293
Description: Inhibition of Nano Luc-fused CSNK2A (unknown origin) expressed in HEK293 cells using NanoGlo as substrate by NanoBRET In-cell target engagement assay

Murine hepatitis virus = test: microbe, parasite or virus in culture; details: Murine coronavirus, DB

Row | pIC50 (cells) | SMILES | inhibition (HEK293) | other results
1 |  | CC(C)Nc1ccc2cnn(-c3cncc(-c4ccc(C(N)=O)cc4)n3)c2c1 | inactive | 
2 |  | CC(C)Nc1ccc2cnn(-c3cncc(-c4ccc(S(N)(=O)=O)cc4)n3)c2c1 | inactive | 
3 |  | COc1ccc(OC(C)C)cc1Nc1cncc(-c2ccc(C(=O)O)cc2)n1 |  | Tm [1]: > 9 °C; Tm [2]: > 9 °C; Tm [3]: > 9 °C; Tm [4]: > 9 °C; Tm [5]: > 9 °C
4 | 5.66 | O=C(O)c1ccc(-c2cncc(-n3ncc4ccc(NC5CCCC5)cc43)n2)cc1 |  | 
5 | 5.59 | O=C(O)c1ccc(-c2cncc(-n3ncc4ccc(NCCN5CCOCC5)cc43)n2)cc1 |  | 
6 | 5.40 | CC(=O)Nc1ccc2cnn(-c3cncc(-c4ccc(C(=O)O)cc4)n3)c2c1 |  | 
7 |  | COc1cc(-c2cncc(-n3ncc4ccc(NC(C)C)cc43)n2)ccc1C(=O)O | inactive | 
8 | 6.59 | CC(C)Nc1ccc2cnn(-c3cncc(-c4ccc(C(=O)O)c(Cl)c4)n3)c2c1 |  | 
9 |  | CC(C)C(=O)OC[C@H]1O[C@@H](n2cc/c(=N\O)[nH]c2=O)[C@H](O)[C@@H]1O [MOLNUPIRAVIR] |  | pIC50 (Murine hepatitis virus): 5.85
